Test [1] concerns mice. The experiment in a line: Effects of central ghrelin injection on alcohol intake and alcohol preference, two-bottle free choice paradigm. Format: in vivo. The note with it: for average alcohol intake / average alcohol preference: ghrelin 2 μg in 1 μl into third ventricle; for average alcohol intake: baseline 1.65; for average alcohol preference: day before 26.76%. The text has this:
The following studies sought to determine whether ghrelin increases alcohol intake and the preference for alcohol in mice selected on the basis of their spontaneous level of alcohol intake. We tested the effects of ghrelin injection into the brain ventricles on alcohol consumption and alcohol preference in mice.
All mice used in this study were selected on the basis of their spontaneously medium level of alcohol intake. Initially, the mice were able to choose freely between alcohol solution (10%) and water. When they had established a stable alcohol intake (approximately 20-80% of their total fluid intake was alcohol) they began a training schedule that gave them access to 10% alcohol for 90 min ever day over two weeks. The mice were then implanted with a cannula into the third ventricle of the brain for subsequent injection. During a baseline period, spontaneous alcohol intake was measured during a 90 min period average for 3 measurements taken on 3 days using a two-bottle free choice paradigm (i.e. water or 10% alcohol). The same protocol was used after ghrelin/vehicle injection on the experimental days.

The subject of test [2] is ghrelin receptor (GHS-R1A) knockout mice. As to conditions: alcohol 1.0 g/kg ip; GHSR knockout mice vs wt/wt.
Protocol: The mice were implanted with a microdialysis probe in the nucleus accumbens for measurements of extracellular dopamine levels. […] The mice were connected to the microdialysis apparatus via a liquid swivel (CMA/Microdialysis AB, Stockholm, Sweden) and were able to move freely during the experiment. After one hour of habituation to the microdialysis perfusion set up, perfusion samples (30 μl) were collected every 20 minutes. Five samples were collected prior to the first alcohol challenge. The baseline dopamine level is defined as the averaged concentration of the three consecutive samples before the first alcohol challenge. Thereafter vehicle (saline, ip) was administered at time 0 minutes.
Test [3] shares this test system. As to conditions: alcohol 1.0 g/kg i.p.; GHS-R knockout mice vs wildtype; P<0.05.
Description: Locomotor activity was registered in eight sound attenuated, ventilated and dimly lit locomotor boxes (420×420×200 mm, Plexiglas®). Five by five rows of photocell beams at the floor level of the box allowed a computer-based system to register the activity of the mice. The mice were allowed to habituate to the environment in the box for one hour before drug challenge and initialization of the experiment. […] Locomotor activity was defined as the accumulated number of new photocell beams interrupted during a 60-minute period.
The mark [4] stands for this setting: intraventricular administration, p<0.05, paired t-test.

The record followed here is patent US20100093638A1, “TREAMENT FOR CHEMICAL SUBSTANCE ADDICTION” (priority 2007, published 2010).

No end group written: not given here.

In test [1] (experiment day one), “ghrelin (GSSFLSPEHQRVQQRKESKKPPAKLQPR; ends and bridges not checked; UniProt Q9UBU3 24-51, looked up) [endogenous ligand for GHS-R, secreted by stomach tissue; purchasable from Bachem]” gave an average alcohol intake of 1.72 g/kg/1.5 hr and an average alcohol preference of 31.72%. In test [1] (experiment day two), the average alcohol intake is given as 2.15 g/kg/1.5 hr and the average alcohol preference was 33.70%. Further, in test [1] (setting [4]), the “effect on alcohol intake compared to the day before the experiments” value is listed as “increased the alcohol intake” and the “effect on alcohol preference compared to the day before the experiments” value was “significant increase of alcohol preference”.
For the molecule `CCO` [alcohol], the “alcohol-induced accumbal dopamine release” value in test [2] is on record as “blunted”. In addition, the alcohol-induced locomotor activity result in test [3] was “do not show an alcohol-induced locomotor activity”.
